Measurements: patent US5157021A, “Insulin derivatives and pharmaceutical preparations containing these derivatives” (Novo Nordisk A/S, priority 1985, dated 1992)

System: guinea pigs
Assay: Hypoglycemia (blood glucose) in guinea pigs after subcutaneous injection of the insulin preparation
Type: in vivo, guinea pig
Protocol: 25 ml of a medium containing 1.6% (w/v) of glycerol. 0.33% (w/v) of m-cresol, 1/75M of sodium phosphate, pH value 7.3, were prepared. The solution was sterilized by filtration. 1.5 mg of human insulin-B21-methyl ester, prepared as described in Example 1, were suspended in 1.0 ml of medium.
4.5 mg of human insulin-A17-methyl ester were dissolved in 2.7 ml of 0.015M phosphoric acid. 21 mg of sodium chloride and 4.1 μlitres of an aqueous solution of 152 mM zinc chloride were added. The solution was sterilized by filtration. The pH value of the solution was adjusted to 8.0 under aseptic conditions with a sterile aqueous solution of sodium hydroxide. The pH value of the solution was then readjusted to 7.3 with sterile hydrochloric acid, and rhombohedral crystals with a mean size of 10 um were formed with gentle stirring at 21° C. The volume was adjusted to 3 ml with sterile water.
Moreover, a sterile solution of 3 ml of 13.5 mM phosphoric acid in admixture with 21 mg of sodium chloride and 9 μlitres of m-cresol was prepared, and the pH value was adjusted to 7.3 with a sterile aqueous solution of sodium hydroxide. The two solutions were combined.
15 mg of human insulin-A4-gln, obtained as described in Example 5, was dissolved in 10 ml of a solution containing 13.5 mM phosphoric acid, 0.3% m-cresol and 1.6% glycerol. The solution was sterilized by filtration, and the pH value was adjusted to 9,0 with a sterile aqueous solution of sodium hydroxide. The pH value was readjusted to 8.2 with a sterile solution of hydrochloric acid, and human insulin-A4-gln crystallized as rhombohedral crystals with gentle stirring.

[1] = dosage 18 μg/kg, crystalline zinc preparation pH 7.3

## Human insulin-B21-methyl ester
subcutaneous, zinc-free suspension 1.5 mg in 1.0 ml medium, pH 7.3
  protracted insulin action compared with "Insulatard": comparable to the hypoglycemia observed after injection of a standard protamin insulin preparation

## Human insulin-A4-gln
Subcutaneous injection of crystalline suspension at 0.5 IU/kg
  protracted hypoglycemic effect compared with "Insulatard" at 0.5 IU/kg: nearly identical both in timing and amplitude

## Human insulin-A17-methyl ester
[1]
  biological activity indicated by area below the blood glucose curve, relative to human insulin: nearly the same biological activity as human insulin
  hypoglycemia: strongly protracted hypoglycemia
  protracted insulin action compared with "Insulatard": longer than the protracted action of the known injection preparation
